Test results from PubChem BioAssay (NCI).
Values joined by “and” are separate entries in the source; they are usually repeats but may differ in a detail not shown here. Equal entries are not always repeated.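 Five concentrations, 48 hours, 96-well plates. GI50: concentration for 50% inhibition of growth. TGI: concentration producing complete growth inhibition.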

What was measured:
Assay in all cases: NCI anticancer screen, dose series, 48 h
A498 renal = system: A498 renal
COLO 205 colon = system: COLO 205 colon
IGROV1 ovarian = system: IGROV1 ovarian
MALME-3M melanoma = system: MALME-3M melanoma
NCI-H23 lung = system: NCI-H23 lung
NCI-H522 lung = system: NCI-H522 lung
SF-268 CNS = system: SF-268 CNS
SNB-75 CNS = system: SNB-75 CNS
TK-10 renal = system: TK-10 renal
UO-31 renal = system: UO-31 renal

Structure (SMILES)	GI50 (A498 renal) [µM]	TGI (A498 renal)	GI50 (COLO 205 colon) [µM]	TGI (COLO 205 colon)	GI50 (IGROV1 ovarian) [µM]	TGI (IGROV1 ovarian)	GI50 (MALME-3M melanoma) [µM]	TGI (MALME-3M melanoma)	GI50 (NCI-H23 lung) [µM]	TGI (NCI-H23 lung)	GI50 (NCI-H522 lung) [µM]	TGI (NCI-H522 lung)	GI50 (SF-268 CNS) [µM]	TGI (SF-268 CNS)	GI50 (SNB-75 CNS) [µM]	TGI (SNB-75 CNS)	GI50 (TK-10 renal) [µM]	TGI (TK-10 renal)	GI50 (UO-31 renal) [µM]	TGI (UO-31 renal)
Clc1ccc(Nc2ncnc3c2sc2ncccc23)c(Cl)c1	0.0317	> 22.1 µM	0.0573	> 25.8 µM	> 100	> 100 µM	6.67	> 100 µM	< 0.01	1.47 µM	< 0.0122	> 100 µM	0.0246	> 100 µM	0.0689	> 30.9 µM	> 100	> 100 µM	< 0.01	4.32 µM
O=C(Nc1nc(-c2ccccc2Cl)cs1)c1cc(-c2ccc(Cl)cc2)nc2ccc(Cl)cc12	27.4	> 100 µM	33.6	> 100 µM	2.99	> 100 µM	4.77	47.7 µM	3.8	> 100 µM	3.48	42.6 µM	2.37	32.9 µM	3.38	> 100 µM	15	> 100 µM	2.46	52.6 µM
C=C(C)[C@@H]1CC[C@]2(C(=O)N3CCN(C)CC3)CC[C@]3(C)[C@H](CC[C@@H]4[C@@]5(C)CC[C@H](O)C(C)(C)[C@@H]5CC[C@]43C)[C@@H]12	1.5	2.9 µM	1.89	4.26 µM	1.93	3.71 µM	1.92	3.83 µM	1.92	3.82 µM	1.92	3.8 µM	2.02	4.42 µM	1.64	3.27 µM	1.79	3.38 µM	1.67	3.24 µM
Oc1[nH]c2ccccc2c1/C=c1/ccc2c(c1)N=C(c1cc(F)cc(F)c1)N=2	1.53	17 µM	8.45	23.4 µM	10.5	28.1 µM	10.1	28.3 µM	4.13	17.7 µM	3.64	18.6 µM	9.44	25.6 µM	3.22	17.7 µM	14	27.7 µM	3.42	20.1 µM
NNc1ncnc2cccc(Cl)c12	–	> 100 µM	–	> 100 µM	–	> 100 µM	–	> 100 µM	–	> 100 µM	–	> 100 µM	–	> 100 µM	–	> 100 µM	–	> 100 µM	–	> 100 µM
C/C(CC(=O)Nc1ccc([N+](=O)[O-])cc1)=N\Nc1ccc([N+](=O)[O-])cc1[N+](=O)[O-]	–	> 100 µM	–	> 100 µM	–	> 100 µM	–	> 100 µM	–	> 100 µM	–	85.5 µM	–	> 100 µM	–	> 100 µM	–	> 100 µM	–	> 100 µM
CCN(CC)CCNC(=O)C(Cl)=C1C(Cl)=C(Cl)C(Cl)=C1Cl	2.59	12.5 µM	4.21	13.4 µM	3.19	> 100 µM	11.9	47.3 µM	5.44	26.5 µM	1.47	3.21 µM	3.25	22 µM	2.21	6.78 µM	3.07	> 100 µM	6.88	26 µM
COc1ccc(Nc2ncccc2C(=O)NCc2cn(Cc3cccc(Oc4ccccc4)c3)nn2)c(OC)c1	1.33	13 µM	2.11	5.7 µM	5.18	> 100 µM	6.21	> 100 µM	2.18	> 100 µM	1.44	6.46 µM	3.34	> 100 µM	3.64	> 84.5 µM	13.8	> 100 µM	5.54	> 100 µM
COc1cccc(/C=C2\CCc3ccccc3C2=O)c1	12.1	25.1 µM	19.9	34.1 µM	12.5	35 µM	12.7	29 µM	16.3	40.1 µM	4.09	22.3 µM	14.8	29.1 µM	16.9	36 µM	15.1	34.6 µM	10.9	24.3 µM
O=C(NC(Cc1ccccc1)C(=O)CCl)OCc1ccccc1 (stereo not given)	10.2	23 µM and 27.6 µM	10	24.1 µM and 24 µM	2.98	13.6 µM and 27.3 µM	1.93	6.7 µM and 23.8 µM	10.5	30.7 µM and 26.1 µM	1.36	3.43 µM and 4.31 µM	4.36	16.3 µM and 26.3 µM	4.77	18.9 µM and 30.2 µM	2.58	9.43 µM and 28.4 µM	3.91	16.4 µM and 25.6 µM
Cc1cc(N(CCC#N)CCC#N)ccc1CC1N=C(c2ccccc2)OC1=O (stereo not given)	–	> 100 µM	–	> 100 µM	–	> 100 µM	–	> 100 µM	–	> 100 µM	–	> 100 µM	–	> 100 µM	–	> 100 µM	–	> 100 µM	–	> 100 µM
CCN(CC)CC(O)c1cc(-c2ccc(Cl)cc2)nc2cc(Cl)ccc12 (stereo not given)	2.95	10.1 µM	1.65	3.34 µM	0.518	2.47 µM	1.78	3.62 µM	1.79	4.49 µM	1.62	3.14 µM	2.69	8.06 µM	1.69	7.14 µM	1.65	3.09 µM	1.06	3.27 µM
CCOC(=O)Nc1cc(-c2ccc(C)c(NS(C)(=O)=O)c2)nn2c(C)nnc12	1.59	5.88 µM	0.452	1.55 µM	1.57	8.17 µM	1.11	41.5 µM	1.93	9.16 µM	0.381	3.22 µM	4.13	> 100 µM	0.477	9.13 µM	0.465	7.36 µM	0.697	> 100 µM
CCOC(=O)Cn1c(=O)[nH]c(=O)c2[nH]cnc21	–	> 100 µM	–	> 100 µM	–	> 100 µM	–	> 100 µM	–	> 100 µM	–	> 100 µM	–	> 100 µM	–	> 100 µM	–	> 100 µM	–	> 100 µM
